A word on the IC50: it is the point on the concentration scale where inhibition reaches its midpoint. The term half-life denotes the time needed for the level to fall by half in the phase considered. High values mean slow decline, low ones rapid decline.

This is an account of results in patent US20260234116A1, “CYTOTOXIC EPOXYKETONE COMPOUNDS, PRECURSORS, COMPOSITIONS, AND METHODS OF USE” (Memorial Sloan-Kettering Cancer Center, priority 2023, published 2026).

Molecules are shown by their SMILES. Like-named read-outs stand apart in the source and are kept apart here.

In one data set the target is EpnF (Streptomyces hygroscopicus, UniProt V5RMU9). Put plainly: Semiquantitative epoxide capture assay (EpnF-catalyzed epoxyketone formation). The data set is classed as biochemical. The conditions noted are these: 1 μM EpnF; for EpnF-catalyzed conversion to epoxyketone (epoxide capture): 240 μM β-ketoacid substrate (FIG. 2); for EpnF-catalyzed formation of epoxyketone (epoxide capture): 250 μM β-ketoacid substrate, 1 h, positive control 11n (FIG. 1). As to the method:
Recombinant EpnF was diluted to 1 μM in 180 μL EpnF Buffer in an 1.5 mL Eppendorf tube. The β-ketoacid 11 was added at various concentrations to a total reaction volume of 200 μL. The mixture was incubated in a heated shaker at 37° C. and 225 rpm for 1 h. The reaction mixture (30 μL×3 technical replicates) was transferred to a white, opaque 96-well plate (PerkinElmer, OptiPlate-96). Each plate also contained 30 μL×3 technical replicates of EpnF Buffer as a negative control. To each well, 15 μL of 125 mM nicotinamide in EpnF Buffer was added and mixed by pipetting. The plate was sealed with an adhesive foil cover (VWR Adhesive Foil for Microplates) and heated in an oven at 80° C. for 1 h. The plate was cooled to rt and 25 μL of 15% (v/v) acetophenone in EtOH and 25 μL of 1 M potassium hydroxide in EtOH were added to each well, then mixed by pipetting. The plate was cooled on ice for 10 min, then 125 μL formic acid was added to each well. The plate was resealed and heated in an oven at 100° C. for 5 min. The plate was cooled on ice for 5-10 min, then analyzed (λex 370 nm, λem 430 nm) on a fluorescence plate reader (Molecular Devices Spectramax M3).
We adapted a reported epoxide capture assay [Nelis, H. J. C. F.; Sinsheimer, J. E. (1981) A sensitive fluorimetric procedure for the determination of aliphatic epoxides under physiological conditions. Anal. Biochem. 115, 151-157.] to 96-well plate format to detect formation of the epoxyketone products semiquantitatively. Each β-ketoacid substrate 11 was incubated with recombinant, purified EpnF (1 h), then reacted with nicotinamide and acetophenone (1 h) to form a fluorescent 1,6-naphthyridinone 24. The fluorescent signals were normalized to that resulting from the known substrate β-ketoacid 11n as a positive control [Zabala, D.; Cartwright, J. W.; Roberts, D. M.; Law, B. J. C.; Song, L.; Samborskyy, M.; Leadlay, P. F.; Micklefield, J.; Challis, G. L. (2016) A flavin-dependent decarboxylase-dehydrogenase-monooxygenase assembles the warhead of α,β-epoxyketone proteasome inhibitors. J. Am. Chem. Soc. 138, 4342-4345.].

A further data set deals with Raji B-cell lymphoma. Put plainly: Cytotoxicity of epoxyketones, CellTitre-Glo, 48 h. The data set is classed as cell-based. The note with it: Homo sapiens. As to the method: (§1) Cytotoxicity Assays. Cancer cell lines (ATCC: U266 multiple myeloma, EL4 mouse lymphoma, Raji B-cell lymphoma) were cultured in Roswell Park Memorial Institute (RPMI) medium supplemented with 10% fetal bovine serum (FBS), 2 mM L-glutamine, 100 IU/mL penicillin, 100 μg/mL nonessential amino acids, 1 mM sodium pyruvate, and 57 μM β-mercaptoethanol. Cells (90 μL) were seeded in the inner 60 wells of an opaque-wall, clear flat-bottom 96-well plate (Corning/Falcon, 351177) at 20,000 cells per well. The outer perimeter wells were filled with 200 μL PBS to reduce evaporation in the central 60 wells. Epoxyketones 12 (20 mM in DMSO) were diluted in RPMI media to 1 mM (5% DMSO final concentration). Each epoxyketone was then diluted log-fold into 10 concentrations with 5% DMSO in RPMI. Each epoxyketone solution (10 μL) was added to the cells for a 0.5% DMSO final concentration across all wells and final epoxyketone concentrations of 100-0.005 μM. Negative control wells were treated with 10 μL of 5% DMSO in RPMI. Cells were incubated with compounds for 48 h, then cytotoxicity was measured with the CellTitre-Glo assay (Promega G9241).

The subject of the next data set is EL4 mouse lymphoma. The data set can be described thus: Cytotoxicity of epoxyketones, CellTitre-Glo, 48 h. It counts as cell-based. The conditions noted are these: EL4, 48 h. The method, then:
as §1

The test system of the next data set is U266 multiple myeloma. Put plainly: Cytotoxicity of epoxyketones, CellTitre-Glo, 48 h. It counts as cell-based. The note with it: Homo sapiens, U-266, U266, 48 h. The method, then:
as §1

Data set [1] in a line: Stability of β-ketoacid substrates (decarboxylation, 1H-NMR or SPE-MS/MS). It counts as physicochemical. As to the method:
To assess rates of decarboxylation under conditions relevant to storage, biochemical assays, and cellular assays, we investigated the stability of eponemycin-based β-ketoacids 11a and 11c under a variety of conditions as shown in below Table C.
For samples stored neat, β-ketoacid 11 (lyophilized powder) was aliquoted into 1.5-2 mg samples in glass vials and placed under Ar. Samples were stored on the bench top (20-25° C.), in at 4° C. refrigerator or in a −20° C. freezer. At each time point, an entire aliquot was dissolved in CD3OD (600 μL) analyzed by ^1H-NMR for decarboxylation to the corresponding isopropyl ketone byproduct 22. The degree of decarboxylation was determined by comparing integrations of two singlet peaks at 1.40 and 1.33 ppm, arising from the α,α-dimethyl groups in the β-ketoacid 11, to two doublet peaks at 1.09 and 1.06 ppm, arising from the isopropyl methyl groups in the decarboxylation product 22. A septuplet corresponding to the methine proton of the isopropyl group was also observed at 2.91 ppm.
For samples stored in PBS, aliquots of β-ketoacid 11 were dissolved in deuterated PBS (600 μL) and incubated in a 37° C. shaking incubator. At each time point, one aliquot was removed and analyzed by ^1H-NMR as above. NMR changes observed in deuterated PBS were similar to those observed in CD3OD above.
For samples stored in RPMI, β-ketoacid 11 (lyophilized powder) was dissolved in EtOH to a working stock concentration of 20 mM. The sample was diluted in RPMI to 100 μM (1000 μL) and incubated at 37° C. At each time point, an aliquot (50 μL) was removed from the master sample, transferred to a 96-well plate, quenched with 4 vol MeOH, centrifuged at 4,000 g to precipitate debris, and immediately analyzed by SPE-MS/MS to quantitate β-ketoacid 11 remaining.

Sequence of EpnF (V5RMU9 entry or part of it): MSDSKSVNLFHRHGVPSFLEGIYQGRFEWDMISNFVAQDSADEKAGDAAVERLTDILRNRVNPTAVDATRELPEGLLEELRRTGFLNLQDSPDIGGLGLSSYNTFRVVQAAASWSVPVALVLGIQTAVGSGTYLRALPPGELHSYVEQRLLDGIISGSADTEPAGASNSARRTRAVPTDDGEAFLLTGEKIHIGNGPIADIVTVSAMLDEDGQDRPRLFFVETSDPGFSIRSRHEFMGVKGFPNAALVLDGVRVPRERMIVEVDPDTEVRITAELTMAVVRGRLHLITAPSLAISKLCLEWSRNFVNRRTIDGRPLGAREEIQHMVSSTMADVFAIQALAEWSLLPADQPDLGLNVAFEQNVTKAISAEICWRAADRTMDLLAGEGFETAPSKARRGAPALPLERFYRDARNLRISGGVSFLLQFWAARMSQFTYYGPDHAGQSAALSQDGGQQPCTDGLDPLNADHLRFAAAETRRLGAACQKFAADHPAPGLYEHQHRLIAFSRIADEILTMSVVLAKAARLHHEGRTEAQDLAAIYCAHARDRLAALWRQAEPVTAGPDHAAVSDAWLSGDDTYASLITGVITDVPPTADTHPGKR

Regarding `CC(C)CCCCC(=O)N[C@@H](C)C(=O)N[C@@H](CC(C)C)C(=O)C(C)(C)C(=O)O` [Compound 11j, (4S)-2,2,6-Trimethyl-4-[(2S)-2-(6-methylheptanamido)propanamido]-3-oxoheptanoic acid], the “EpnF-catalyzed conversion to epoxyketone (epoxide capture)” value (“EpnF-catalyzed conversion to epoxyketone” for short) on EpnF was “tolerated”.

For the compound `CC(C)C[C@H](NC(=O)[C@H](CO)NC(=O)c1ccccc1)C(=O)[C@@]1(C)CO1` [Compound 12o, (2S)-3-Hydroxy-N-[(2S)-4-methyl-1-[(2R)-2-methyloxiran-2-yl]-1-oxopentan-2-yl]-2-(phenylformamido)propenamide], the IC50 is 3600 nM in the data set with Raji B-cell lymphoma (read-out: IC50); 3470 nM in the data set on Raji B-cell lymphoma (read-out: log IC50 (converted)); 7.2 µM with EL4 mouse lymphoma (read-out: IC50); 7.24 µM with EL4 mouse lymphoma (read-out: log IC50 (converted)); 2700 nM in the data set with U266 multiple myeloma (read-out: IC50); 2690 nM in the data set with U266 multiple myeloma (read-out: log IC50 (converted)).

For the compound `CC(C)CCCCC(=O)N[C@H](C(=O)N[C@@H](CC(C)C)C(=O)[C@@]1(C)CO1)[C@@H](C)O` [Compound 12l, N-[(1S)-2-Hydroxy-1-{[(2S)-4-methyl-1-[(2R)-2-methyloxiran-2-yl]-1-oxopentan-2-yl]carbamoyl}propyl]-6-methylheptanamide], the IC50 in the data set on Raji B-cell lymphoma (read-out: IC50) was 2100 nM; in the data set on Raji B-cell lymphoma (read-out: log IC50 (converted)), 2090 nM; with EL4 mouse lymphoma (read-out: IC50), 3.7 µM; with EL4 mouse lymphoma (read-out: log IC50 (converted)) it was 3.55 µM; with U266 multiple myeloma (read-out: IC50), 2100 nM; in the data set on U266 multiple myeloma (read-out: log IC50 (converted)), 2140 nM.

With `CC(C)CCCCC(=O)N[C@@H](CO)C(=O)N[C@@H](CC(C)C)C(=O)C(C)(CO)C(=O)O` (single isomer, unassigned) [Compound 11c], the “EpnF-catalyzed formation of epoxyketone (epoxide capture)” value at EpnF is “no epoxide formation was detected”. Also, in data set [1] (deuterated PBS, PBS, 37° C.), the half-life is 15 min. Moreover, the “stability / rate of decarboxylation (in words)” value in data set [1] (neat at low temperatures, buffer or media at 37° C.) was “considerably faster”.

Consider `CC(C)CCCCC(=O)N[C@@H](CO)C(=O)N[C@@H](CC(C)C)C(=O)C(C)C(=O)O` (some centres unmarked) [Compound 11e], for which the “EpnF-catalyzed conversion to epoxyketone” value on EpnF was “not tolerated”.

On to `C=C(C)C[C@H](NC(=O)[C@H](CO)NC(=O)CCCCC(C)C)C(=O)C(C)(CO)C(=O)O` (single isomer, unassigned) [Compound 11d], for which the “EpnF-catalyzed formation of epoxyketone (epoxide capture)” value on EpnF is “no epoxide formation was detected”.

Turning to `CC(C)CCCCC(=O)N[C@@H](Cc1ccccc1)C(=O)N[C@@H](CC(C)C)C(=O)C(C)(C)C(=O)O` [Compound 11m, (4S)-2,2,6-Trimethyl-4-[(2S)-2-(6-methylheptanamido)-3-phenylpropanamido]-3-oxoheptanoic acid], the “EpnF-catalyzed conversion to epoxyketone” value at EpnF is “not accepted”.

On to `CC(C)CCCCC(=O)N[C@@H](C)C(=O)N[C@@H](CC(C)C)C(=O)[C@@]1(C)CO1` [Compound 12j, 6-Methyl-N-[(1S)-1-{[(2S)-4-methyl-1-[(2R)-2-methyloxiran-2-yl]-1-oxopentan-2-yl]carbamoyl}ethyl]heptanamide], for which the IC50 in the data set with Raji B-cell lymphoma (read-out: IC50) is 1900 nM; in the data set with Raji B-cell lymphoma (read-out: log IC50 (converted)) it was 1910 nM; in the data set with EL4 mouse lymphoma (read-out: IC50), 3.2 µM; in the data set with EL4 mouse lymphoma (read-out: log IC50 (converted)), 3.02 µM; in the data set on U266 multiple myeloma (read-out: IC50), 2200 nM; in the data set with U266 multiple myeloma (read-out: log IC50 (converted)), 2190 nM.

`CCCC(=O)N[C@@H](CO)C(=O)N[C@@H](CC(C)C)C(=O)[C@@]1(C)CO1` [Compound 12n]: the IC50 was 5400 nM in the data set on Raji B-cell lymphoma (read-out: IC50); 5370 nM with Raji B-cell lymphoma (read-out: log IC50 (converted)); 5.7 µM in the data set with EL4 mouse lymphoma (read-out: IC50); 5.37 µM in the data set with EL4 mouse lymphoma (read-out: log IC50 (converted)); 4800 nM in the data set with U266 multiple myeloma (read-out: IC50); 4790 nM in the data set on U266 multiple myeloma (read-out: log IC50 (converted)).

Regarding `CC(C)CCCCC(=O)N[C@@H](CO)C(=O)N[C@@H](C)C(=O)C(C)(C)C(=O)O` [Compound 11f, (4S)-4-[(2S)-3-Hydroxy-2-(6-methylheptanamido)propanamido]-2,2-dimethyl-3-oxopentanoic acid], the “EpnF-catalyzed conversion to epoxyketone” value on EpnF was “could not be truncated to alanine”.
